Laboratory results published in BindingDB's records for doi:10.1021/jm400050y (University of Michigan, 2013).

Tests used:
[1] = biological target: Delta-type opioid receptor (Rattus norvegicus, UniProt P33533); assay: Displacement of [3H]diprenorphine from rat DOR expressed in rat C6 cells after 1 hr by liquid scintillation counting analysis
Mu-type opioid receptor [2] = biological target: T1, Mu-type opioid receptor (Rattus norvegicus, UniProt P33535); assay: Displacement of [3H]diprenorphine from rat MOR expressed in rat C6 cells after 1 hr by liquid scintillation counting analysis
Mu-type opioid receptor [3] = biological target: T1, Mu-type opioid receptor; assay: Agonist activity at rat MOR expressed in rat C6 cells assessed as stimulation of [35S]GTPgammaS binding after 1 hr by liquid scintillation counting analysis

T1 sequence (P33535 whole entry): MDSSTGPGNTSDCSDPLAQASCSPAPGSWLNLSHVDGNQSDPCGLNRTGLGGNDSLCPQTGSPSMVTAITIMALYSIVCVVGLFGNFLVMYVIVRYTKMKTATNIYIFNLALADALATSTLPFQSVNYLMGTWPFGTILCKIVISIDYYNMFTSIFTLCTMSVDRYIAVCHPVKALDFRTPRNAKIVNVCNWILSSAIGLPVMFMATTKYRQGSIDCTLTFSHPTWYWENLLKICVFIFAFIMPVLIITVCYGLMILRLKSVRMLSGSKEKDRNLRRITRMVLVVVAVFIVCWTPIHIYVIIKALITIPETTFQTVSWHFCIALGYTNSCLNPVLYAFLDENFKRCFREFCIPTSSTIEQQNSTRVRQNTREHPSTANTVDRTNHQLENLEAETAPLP
Sequence of Delta-type opioid receptor (P33533 whole entry): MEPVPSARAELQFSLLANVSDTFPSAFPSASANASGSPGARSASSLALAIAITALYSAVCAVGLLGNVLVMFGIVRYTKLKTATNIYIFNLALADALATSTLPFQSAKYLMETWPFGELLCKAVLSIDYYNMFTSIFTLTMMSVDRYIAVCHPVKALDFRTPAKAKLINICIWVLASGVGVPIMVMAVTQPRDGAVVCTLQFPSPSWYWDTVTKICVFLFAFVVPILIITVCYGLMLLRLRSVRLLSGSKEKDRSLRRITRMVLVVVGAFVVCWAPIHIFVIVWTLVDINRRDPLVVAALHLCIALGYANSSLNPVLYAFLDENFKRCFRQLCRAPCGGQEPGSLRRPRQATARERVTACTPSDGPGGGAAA

Row | SMILES | Ki [1] | Ki (Mu-type opioid receptor [2]) | EC50 (Mu-type opioid receptor [3])
1 | Cc1cc(O)cc(C)c1C[C@H](N)C(=O)N[C@H]1CCNc2ccc(CCc3ccccc3)cc21 | 120 nM | 16 nM | –
2 | Cc1cc(O)cc(C)c1C[C@H](N)C(=O)N[C@@H]1CCNc2ccc(CCc3ccccc3)cc21 | 8.9 nM | 0.24 nM | 1.1 nM
